We go through 18 molecules from patent US11780843B2, “Compounds active towards nuclear receptors” (NUEVOLUTION A/S, priority 2020, dated 2023).

Read-outs that look alike come from different tables or passages of the source. Bounds are passed on as bounds.

Assay [1] deals with IL-17A secretion in activated PBMCs. As to the kind of experiment: IL-17A secretion in activated PBMCs. The assay is classed as cell-based. The following applies: Homo sapiens, PBMC, 48 h, human PBMCs stimulated with CD3/CD28 Dynabeads for 48 h, absolute IC50. The text has this: Heparin-treated whole blood from healthy human volunteers was supplied from Hospital de Sant Pau (Barcelona) under the approval of the local ethical review board for human studies (Hospital de Sant Pau, Barcelona, Spain). Human peripheral blood mononuclear cells (PBMCs) were isolated from healthy human volunteers by density gradient centrifugation using the Ficoll-Paque (GE Healthcare). PBMCs were suspended in cell culture medium which consisted on RPMI 1640 medium (Sigma-Aldrich) containing 10% heat inactivated fetal bovine serum (Sigma-Aldrich), 2 mM L-Glutamine (Gibco), 20 mM Hepes (Gibco) and 100 U/mL penicillin (Sigma-Aldrich). Cells were seeded in 384-well plate (DiscoverX), at 40,000 cells per well and cultured 2 h at 37° C. and 5% CO2.
Dose-response curves with compounds were prepared using a 5-fold serial dilution (10 concentrations) in 100% DMSO and further diluted 100-fold in culture medium. Compound solutions (5 μL) were added to the plate containing cells (final DMSO concentration of 0.1%) and incubated for 30 min. Then, cells were stimulated with CD3/CD28 Dynabeads (ThermoFisher, at a bead-to-cell ratio of 1:1) for 48 h at 37° C. and 5% CO2.
IL-17A levels in supernatant were determined by immunoassay using hIL17A QBeads (Intellicyt) and by fluorescence analysis in iQue flow cytometer following the manufacturer's instructions. Inhibition of IL-17A secretion was calculated using the following formula: inhibition=100*[1−[(x−mean basal condition)/(mean top condition—mean basal condition)]]. Activated DMSO-treated cells were used as top condition and activated GNE09461 (10 μM)-treated cells as basal condition.

Assay [2] concerns the target T1, RORγ ligand-binding domain (Homo sapiens, UniProt P51449).
T1 construct: Gal4 (galactose-responsive transcription factor); expressed in transfected cells; host or cells: HEK293, transient co-transfection
T1 sequence (P51449 269-508 limits assumed): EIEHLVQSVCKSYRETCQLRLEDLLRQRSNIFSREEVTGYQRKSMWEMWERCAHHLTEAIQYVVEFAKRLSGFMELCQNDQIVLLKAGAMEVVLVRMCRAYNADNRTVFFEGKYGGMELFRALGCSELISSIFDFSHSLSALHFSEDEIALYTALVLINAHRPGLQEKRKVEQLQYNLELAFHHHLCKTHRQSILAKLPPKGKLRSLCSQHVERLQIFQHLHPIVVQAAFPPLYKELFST
As to the kind of experiment: RORγ Reporter Assay (Gal4). The assay is classed as cell-based. As to the method: The HEK293 cell line is co-transfected transiently with two plasmids, one with the RORγ ligand-binding domain fused to galactose-responsive transcription factor (Ga14), and the other with the luciferase reporter gene and Gal binding sites (UAS). This construction allows to determine the RORT activity in a cellular system through the measurement of luminescence.
A suspension of RORγ reporter cells was dispensed into plates and cultured 2 h at 37° C. and 5% CO2. Media formulation consisted in DMEM/F-12 medium (Gibco) supplemented with 10% heat inactivated FBS (Sigma-Aldrich), non-essential aminoacids (Sigma-Aldrich), 2 mM Glutamax (Gibco) and 100 U/mL penicillin (Sigma-Aldrich). Dose-response curves with compounds were prepared in 100% DMSO and further diluted 100-fold in culture medium. Compound solutions were added to the plate containing cells (final DMSO concentration of 0.1%) and incubated for 24 h at 37° C. and 5% CO2. Luciferase detection reagent was added to each well, and relative light units (RLUs) were quantified from each assay well using a plate reading luminometer.
Values of average RLU±S.D. were computed for all treatment sets, followed by the calculations of percent-reduction of RORT activity in response to respective test compound. The following formula was used: activity=100*[1−[[…]] where the theoretical minimum reduction (0% reduction). […] These calculations were performed in excel-fit software using X-204 model curve.
In general terms: Reporter assays use an easily measured gene product as a stand-in for the process of interest.

The mark [3] stands for this setting: HEK293 cells, luciferase reporter, 24 h incubation, absolute IC50, read-out: IC50.
Where [4] appears, read: Table 5 b, bound estimated from % inhibition at 0.1 and/or 1 uM, read-out: RORγ Gal4 assay (based on % inhibition at 0.1 and/or 1 uM) IC50.
Where [5] appears, read: stated as a bound only (Tables 5 a, 6, 7), read-out: Gal4 assay IC50.

Consider `CN(Cc1ccc(C(F)(F)F)cc1)c1ncnc2c1c(F)cn2C[C@@H]1CCN(CC(N)=O)C[C@H]1O` (racemic) [Example P6-12, rac-2-((3R,4R)-4-((5-fluoro-4-(methyl(4-(trifluoromethyl)benzyl)amino)-7H-pyrrolo[2,3-d]pyrimidin-7-yl)methyl)-3-hydroxypiperidin-1-yl)acetamide], for which the IC50 came to 30 nM in assay [1] and 5.2 nM in assay [2] (setting [3]). For `NC(=O)CN1CC[C@@H](Cn2ccc3c(N(Cc4ccc(C(F)(F)F)cc4)C4CC4)ncnc32)[C@H](O)C1` (racemic) [Example P6-13, rac-2-((3R,4R)-4-((4-(cyclopropyl(4-(trifluoromethyl)benzyl)amino)-7H-pyrrolo[2,3-d]pyrimidin-7-yl)methyl)-3-hydroxypiperidin-1-yl)acetamide], in that order: 1.5 nM and 0.9 nM. `NC(=O)CN1CC[C@@H](Cn2cc(F)c3c(N(Cc4ccc(C(F)(F)F)cc4)C4CC4)ncnc32)[C@H](O)C1` (racemic) [Example P6-14, rac-2-((3R,4R)-4-((4-(cyclopropyl(4-(trifluoromethyl)benzyl)amino)-5-fluoro-7H-pyrrolo[2,3-d]pyrimidin-7-yl)methyl)-3-hydroxypiperidin-1-yl)acetamide]: the IC50 amounted to 2.2 nM in assay [1] and 1 nM in assay [2] (setting [3]).

With `NC(=O)CN1CC[C@@H](Cn2cc(F)c3c(N(Cc4ccc(C(F)(F)F)nc4)C4CC4)ncnc32)[C@H](O)C1` (racemic) [Example P6-15, rac-2-((3R,4R)-4-((4-(cyclopropyl((6-(trifluoromethyl)pyridin-3-yl)methyl)amino)-5-fluoro-7H-pyrrolo[2,3-d]pyrimidin-7-yl)methyl)-3-hydroxypiperidin-1-yl)acetamide], the IC50 was found to be 18 nM in assay [1] and 10 nM in assay [2] (setting [3]).

On to `NC(=O)CN1CC[C@@H](Cn2ccc3c(N(Cc4ccc(C(F)(F)F)nc4)C4CC4)ncnc32)[C@H](O)C1` (racemic) [Example P6-16, rac-2-((3R,4R)-4-((4-(cyclopropyl((6-(trifluoromethyl)pyridin-3-yl)methyl)amino)-7H-pyrrolo[2,3-d]pyrimidin-7-yl)methyl)-3-hydroxypiperidin-1-yl)acetamide], for which the IC50 in assay [1] is 17 nM; in assay [2] (setting [3]), 5 nM. As to `NC(=O)CN1CC[C@@H](Cn2cc(F)c3c(N(Cc4ccc(C(F)(F)F)cn4)C4CC4)ncnc32)[C@H](O)C1` (racemic) [Example P6-18, rac-2-((3R,4R)-4-((4-(cyclopropyl((5-(trifluoromethyl)pyridin-2-yl)methyl)amino)-5-fluoro-7H-pyrrolo[2,3-d]pyrimidin-7-yl)methyl)-3-hydroxypiperidin-1-yl)acetamide], the IC50 in assay [1] came to 14 nM; in assay [2] (setting [3]), 4.6 nM. Regarding `CC(C)N(Cc1ccc(C(F)(F)F)cc1)c1ncnc2c1c(F)cn2C[C@@H]1CCN(CC(N)=O)C[C@H]1O` (racemic) [Example P6-19, rac-2-((3R,4R)-4-((5-fluoro-4-(isopropyl(4-(trifluoromethyl)benzyl)amino)-7H-pyrrolo[2,3-d]pyrimidin-7-yl)methyl)-3-hydroxypiperidin-1-yl)acetamide], the IC50 in assay [1] amounted to 15 nM; in assay [2] (setting [3]) it was 9.8 nM. The corresponding values for `CCN(Cc1ccc(C(F)(F)F)cc1)c1ncnc2c1c(F)cn2C[C@@H]1CCN(CC(N)=O)C[C@H]1O` (racemic) [Example P6-21, rac-2-((3R,4R)-4-((4-(ethyl(4-(trifluoromethyl)benzyl)amino)-5-fluoro-7H-pyrrolo[2,3-d]pyrimidin-7-yl)methyl)-3-hydroxypiperidin-1-yl)acetamide] are 11 nM and 6.6 nM.

Consider `NC(=O)CN1CC[C@@H](Cn2ccc3c(N(Cc4ccc(C(F)(F)F)cn4)C4CC4)ncnc32)[C@H](O)C1` (racemic) [Example P6-23, rac-2-((3R,4R)-4-((4-(cyclopropyl((5-(trifluoromethyl)pyridin-2-yl)methyl)amino)-7H-pyrrolo[2,3-d]pyrimidin-7-yl)methyl)-3-hydroxypiperidin-1-yl)acetamide], for which the IC50 in assay [1] was determined as 12 nM; in assay [2] (setting [3]) it was 5.3 nM. For `CCN(Cc1ccc(C(F)(F)F)cc1)c1ncnc2c1ccn2C[C@@H]1CCN(CC(N)=O)C[C@H]1O` (racemic) [Example P6-24, rac-2-((3R,4R)-4-((4-(ethyl(4-(trifluoromethyl)benzyl)amino)-7H-pyrrolo[2,3-d]pyrimidin-7-yl)methyl)-3-hydroxypiperidin-1-yl)acetamide], in that order: 22 nM and 4.6 nM. As to `CC(C)N(Cc1ccc(C(F)(F)F)cc1)c1ncnc2c1ccn2C[C@@H]1CCN(CC(N)=O)C[C@H]1O` (racemic) [Example P6-25, rac-2-((3R,4R)-3-hydroxy-4-((4-(isopropyl(4-(trifluoromethyl)benzyl)amino)-7H-pyrrolo[2,3-d]pyrimidin-7-yl)methyl)piperidin-1-yl)acetamide], the IC50 in assay [1] is 35 nM; in assay [2] (setting [3]), 15 nM. Take `NC(=O)Cc1ccc(Cn2ccc3c(N4CCOC[C@@H]4c4ccc(C(F)(F)F)cn4)ncnc32)cc1` [Example 328, reference compound]: the IC50 in assay [2] (setting [4]) and in assay [2] (setting [5]) was less than 100 nM in each case. As for `NC(=O)Cc1ccc(Cn2ccc3c(N(Cc4ccc(C(F)(F)F)cc4)C4CC4)ncnc32)cc1` [Example I1, reference compound], the IC50 in assay [2] (setting [4]) and in assay [2] (setting [5]) was less than 100 nM each time.

In the case of `N#Cc1cn(CC2CCN(CC(N)=O)CC2)c2ncnc(N(Cc3ccc(C(F)(F)F)cc3)C3CC3)c12` [Example P6-07, 2-(4-((5-cyano-4-(cyclopropyl(4-(trifluoromethyl)benzyl)amino)-7H-pyrrolo[2,3-d]pyrimidin-7-yl)methyl)piperidin-1-yl)acetamide], the IC50 in assay [2] (setting [3]) was 279 nM.

In the case of `CC(C(N)=O)N1CCC(Cn2cnc3c(N(Cc4ccc(C(F)(F)F)cc4)C4CC4)ncnc32)CC1` (centres unmarked) [Example P6-08, 2-(4-((6-(cyclopropyl(4-(trifluoromethyl)benzyl)amino)-9H-purin-9-yl)methyl)piperidin-1-yl)propanamide], the IC50 in assay [2] (setting [3]) was 231 nM.

Turning to `CC(C)(C(N)=O)N1CCC(Cn2cnc3c(N(Cc4ccc(C(F)(F)F)cc4)C4CC4)ncnc32)CC1` [Example P6-09, 2-(4-((6-(cyclopropyl(4-(trifluoromethyl)benzyl)amino)-9H-purin-9-yl)methyl)piperidin-1-yl)-2-methylpropanamide], the IC50 in assay [2] (setting [3]) was greater than 1000 nM. Turning to `NC(=O)CN1CCC(Cn2cc(F)c3c(N(Cc4ccc(C(F)(F)F)nc4)C4CC4)ncnc32)CC1` [Example P6-10, 2-(4-((4-(cyclopropyl((6-(trifluoromethyl)pyridin-3-yl)methyl)amino)-5-fluoro-7H-pyrrolo[2,3-d]pyrimidin-7-yl)methyl)piperidin-1-yl)acetamide], the IC50 in assay [2] (setting [3]) was determined as 93 nM.

With `NC(=O)CN1CCC(Cn2ccc3c(N4CCOC[C@@H]4c4ccc(C(F)(F)F)cn4)ncnc32)CC1` [Example Q4-2, (S)-2-(4-((4-(3-(5-(trifluoromethyl)pyridin-2-yl)morpholino)-7H-pyrrolo[2,3-d]pyrimidin-7-yl)methyl)piperidin-1-yl)acetamide], the IC50 in assay [2] (setting [3]) was 330 nM; in assay [2] (setting [5]), less than 500 nM.
